Results taken from US7994129B2, “Methods of using black bear parathyroid hormone” (Michigan Technological University, priority 2005, dated 2011).
“Also recorded” adds a separate entry of the source.

Tests used:
[1] = system: rats; conditions: cited from earlier work; for osteosarcoma on long-term usage: rats
[2] = men and women who can lose 20-30% of cortical and cancellous bone; cited from earlier work
[3] = system: MC-3T3 osteoblastic cells and MLO-Y4 osteocytic cells; test: Gene expression in bone cell lines by real-time PCR (Example 7); type: cell-based; conditions: 100 nM PTH polypeptide, 1 or 3 hours
Experimental: Full-length recombinant black bear PTH (residues 1-84) is produced and its effects on levels of gene expression in bone cell lines (MC-3T3 osteoblastic cells and MLO-Y4 osteocytic cells) are investigated and are compared to results obtained using recombinant human PTH 1-84. Equivalent experiments are conducted using subfragments of black bear and human PTH, the subfragments including amino acid residues 1-34, 1-36, 7-84, 11-84, and 41-52 of the full-length (1-84) mature protein. For some experiments, black bear and human PTH polypeptides are synthesized with solid-phase methods.
To determine the effect of black bear and human PTH on regulation of bone matrix, transcriptional regulatory, anti-apoptosis (Bcl-2) genes, and the pro-apoptosis gene Bax, cells are cultured for 1 or 3 hours with human or bear PTH 1-84 or a subfragment. Gene expression is quantified with real-time PCR. […]
Reverse transcription to generate cDNA is performed using Superscript II reverse transcriptase (Invitrogen, Carlsbad, Calif.), and 0.5 μg Oligo(dT) 12-18 primer at 42° C. for 20 minutes, 50° C. for 10 minutes and 42° C. for 1 hour in a gradient thermocycler (Mastercycler gradient, Eppendorf, Westbury, N.Y.). […] Gene expression is determined using the relative standard curve method normalized to the geometric mean of the three housekeeping genes. […]

[4] = system: MC-3T3 cells; test: Gene expression by real-time PCR in MC-3T3 cells incubated with synthetic bear or human PTH 1-34 (Example 11); type: cell-based; conditions: 100 nM; for expression ratio of Bax/Bcl-2: 3 hours, MC-3T3 cells (FIG. 7, n=4); for expression of type I collagen / expression of osteocalcin: 6 hours, MC-3T3 cells; for expression of type I collagen: compared to the vehicle control; for expression of osteocalcin: compared to the vehicle control (FIG. 6, n=2)
Experimental: MC-3T3 cells were incubated in vehicle or 100 nM synthetic bear or human PTH 1-34 for 3 or 6 hours (n=2 or 4). Total RNA was isolated, and cDNA was generated with reverse transcription. Primers for the bone matrix proteins type I collagen and osteocalcin, the pro-apoptotic protein Bax, the anti-apoptotic protein Bcl-2, and the housekeeping genes Gapdh, β-actin, and cyclophillin were designed using PrimerQuest software (Integrated DNA Technologies, Coralville, Iowa). Real-time PCR was performed using the Mx3000P real-time PCR system (Stratagene, LaJolla, Calif.). All samples were measured in duplicate. Gene expression was determined using the relative standard curve method normalized to the geometric mean of the three housekeeping genes (Gapdh, β-actin, and cyclophillin). Apoptosis-related genes were analyzed as the expression ratio of Bax/Bcl-2, since a decrease in this ratio is associated with decreased apoptosis in vitro.

[5] = system: ovariectomized rats; conditions: cited from earlier work
[6] = system: procollagen-1 mRNA; conditions: Nasu et al., 1998; cited from earlier work
[7] = humans, once daily; cited from earlier work

CC[C@H](C)[C@H](NC(=O)[C@H](CCC(=O)O)NC(=O)[C@H](CO)NC(=O)[C@@H](NC(=O)[C@@H](N)CO)C(C)C)C(=O)N[C@@H](CCC(N)=O)C(=O)N[C@@H](CC(C)C)C(=O)N[C@@H](CCSC)C(=O)N[C@@H](Cc1cnc[nH]1)C(=O)N[C@@H](CC(N)=O)C(=O)N[C@@H](CC(C)C)C(=O)NCC(=O)N[C@@H](CCCCN)C(=O)N[C@@H](Cc1cnc[nH]1)C(=O)N[C@@H](CC(C)C)C(=O)N[C@@H](CC(N)=O)C(=O)N[C@@H](CO)C(=O)N[C@@H](CCSC)C(=O)N[C@@H](CCC(=O)O)C(=O)N[C@@H](CCCN=C(N)N)C(=O)N[C@H](C(=O)N[C@@H](CCC(=O)O)C(=O)N[C@@H](Cc1c[nH]c2ccccc12)C(=O)N[C@@H](CC(C)C)C(=O)N[C@@H](CCCN=C(N)N)C(=O)N[C@@H](CCCCN)C(=O)N[C@@H](CCCCN)C(=O)N[C@@H](CC(C)C)C(=O)N[C@@H](CCC(N)=O)C(=O)N[C@@H](CC(=O)O)C(=O)N[C@H](C(=O)N[C@@H](Cc1cnc[nH]1)C(=O)N[C@@H](CC(N)=O)C(=O)N[C@@H](Cc1ccccc1)C(=O)O)C(C)C)C(C)C [LY333334]
osteosarcoma on long-term usage [1]: generates osteosarcoma

ALX1-11: recombinant human PTH 1-84 (NPS Pharmaceuticals), under consideration for FDA approval
osteosarcoma on long-term usage [1]: generates osteosarcoma | lost bone recovered during suggested treatment regimen [2]: 8%

bear PTH 1-34: synthetic polypeptide of amino acid residues 1-34 of black bear parathyroid hormone, SEQ ID NO: 2 (SVSEIQFMHNLGKHLSSMERVEWLRKKLQDVHNF; listed as Ursus americanus)
gene expression (bone matrix, transcriptional regulatory and transcriptional activator genes) [3]: upregulates | expression ratio of Bax/Bcl-2 [4]: decreased | expression ratio of Bax/Bcl-2 ([4]; listed as black bear PTH 1-34): decreases | expression of type I collagen [4]: did not affect | expression of osteocalcin [4]: substantially upregulated | expression of osteocalcin ([4]; listed as black bear PTH 1-34): upregulate

bovine PTH 1-34: bovine PTH 1-34; rat PTH 1-34 has 5 amino acid sequence differences from it (AVSEIQFMHNLGKHLSSMERVEWLRKKLQDVHNF; Parathyroid hormone; UniProt P01268 32-65, looked up, fragment)
greater bone formation response than to rat PTH 1-34 ([5]; daily 25 μg injections): 25% | greater increase in bone volume fraction during treatment ([5]; injection, versus rat PTH 1-34): 37%

human PTH 1-34: synthetic human PTH 1-34, the 1-34 region of human PTH, used as comparator (SVSEIQLMHNLGKHLNSMERVEWLRKKLQDVHNF; Parathyroid hormone; UniProt P01270 32-65, looked up, fragment)
expression ratio of Bax/Bcl-2 [4]: increases | expression of type I collagen [4]: did not affect | expression of osteocalcin [4]: substantially upregulated; also recorded: upregulate | production of procollagen-1 mRNA [6]: down-regulates

human PTH 1-84: full-length human parathyroid hormone, residues 1-84
rate of carcinogenicity compared with human PTH 1-34 ([1]; preliminary results): lower

B1: Human PTH: human parathyroid hormone given once daily to humans (protein, UniProt P01270 32-115, looked up)
Parathyroid hormone: SVSEIQLMHNLGKHLNSMERVEWLRKKLQDVHNFVALGAPLAPRDAGSQRPRKKEDNVLVESHEKSLGEADKADVNVLTKAKSQ
modifications: Parathyroid hormone
bone mass [7]: increases | fracture incidence [7]: decreases
